Legend:
[1] = tested on: small intestinal organoids in mice; assay: Protection of ISX on injury of mouse small intestinal organoids caused by 5-FU, immunofluorescence staining (cleaved caspase-3); conditions: 5-FU 50 uM alone, 4 hours of treatment; FIG. 1
Excerpt: (§1) 1. Isolation of Crypts and Culture of Organoids
(§2) 3. Immunofluorescence of Organoids

[2] = tested on: small intestinal organoids in mice; assay: Protection of ISX on injury of mouse small intestinal organoids caused by 5-FU, bright field and live cells/dead cells double staining; assay type: cell-based; conditions: then 4 days of culture
Excerpt: as §1

human colon organoids = assay: Protection of ISX on human colon organoids, bright field and live cells/dead cells double staining; conditions: 5-FU 20 uM alone
Excerpt: Calcein-AM/PI Live Cells/Dead Cells Double Staining Assay
Calcein-AM can permeate the cell membrane, and the esterase in living cells can remove its AM group to produce calcein and emit fluorescence. PI (propidium iodide) cannot pass through the intact cell membrane, and only after the cell membrane is damaged and the permeability changes, PI can enter the cell to combine with DNA and emit fluorescence. Therefore, Calcein-AM/PI can be a label for distinguishing the live or dead cells.
Colon tissues were isolated from normal human tissue to perform organoid culture, after the culture was stable, performing subculture to continue the culture for 3-5 days. The culture was dividing into 4 groups: a control group of adding DMSO alone (DMSO group); a group of adding chemotherapy drug 5-fluorouracil (5-FU, 20 uM) alone (5-FU group); a group of adding ISX (10 uM) alone (ISX group); and a group of adding 5-FU (50 uM) and ISX (25 uM) simultaneously (5-FU+ISX group).
The signal generated by PI in the fluorescence image represents dead cells, and the signal generated by Calcein-AM represents living cells.

[3] = tested on: small intestinal organoids in mice; assay: Comparative experiment on the protective effects of PD332991, CHIR99021 and ISX on intestinal organoids; conditions: then 4 days of culture, FIG. 13
Excerpt: as §1
In this example, PD0332991 and CHIR99021 were used as reference compounds to evaluate the protective effect of the compounds of the present application on intestinal organoids.
After treatment, all compound treatments were terminated, and the organoids were washed 3 times with PBS, then culturing in fresh medium.

[4] = tested on: small intestinal organoids in mice; assay: Protection of ISX on injury of mouse small intestinal organoids caused by etoposide, bright field and live cells/dead cells double staining; assay type: cell-based; conditions: then 4 days of culture
Excerpt: as §1

[5] = tested on: small intestinal organoids in mice; assay: Protection of ISX on injury of mouse small intestinal organoids caused by etoposide, Western blotting; assay type: cell-based; conditions: etoposide 50 uM + ISX 25 uM, 4 hours of treatment; FIG. 5
Protocol: as §1
5. Western Blotting Assay
After 4 hours of treatment, 4 groups of samples were collected for Western blotting assay.

intestinal tract of mice = assay: Protective effect of ISX on the intestinal tract of mice, TUNEL assay; assay type: in vivo; conditions: etoposide 20 mg/kg intraperitoneally, ISX 20 mg/kg orally
Protocol: 6-8 week-old wild-type B6 mice were randomly divided into two groups. One group was intraperitoneally injected with chemotherapeutic drug etoposide (20 mg/kg), and then orally administered a cosolvent (5% DMSO+0.5% Tween 80+0.5% CMC-Na) (5 mL/kg); another group was intraperitoneally injected with chemotherapeutic drug etoposide (20 mg/kg), and then orally administered ISX dissolved in a cosolvent (20 mg/kg). The mice were sacrificed 3 hours later, and the intestinal tissues were fixed, followed by TUNEL staining assay.

[6] = tested on: small intestinal organoids in mice; assay: Protection of ISX on injury of mouse small intestinal organoids caused by etoposide, immunofluorescence staining; assay type: cell-based; conditions: etoposide 50 uM + ISX 25 uM, 4 hours of treatment; FIG. 4
Excerpt: as §1, §2

[7] = 5-FU 50 uM + ISX 25 uM, 8 hours of treatment, FIG. 2
[8] = etoposide 50 uM + ISX 25 uM, 8 hours of treatment, FIG. 6

`O=c1[nH]cc(F)c(=O)[nH]1` [5-FU, 5-fluorouracil] was tested, and the “dead cells (cleaved caspase-3 signal), 5-FU group vs DMSO group” value [1] was “significantly higher”, the “biomass (bright field), 5-FU group compared with DMSO group” value ([2]; 5-FU 50 uM alone, 8 hours of treatment, FIG. 2) was “significantly reduced” and the “number of crypt structures, 5-FU group vs DMSO group” value (human colon organoids; 48 hours of treatment, p<0.01, FIGS. 8-9) was “significantly reduced”. The “dead cells (PI), 5-FU group compared with DMSO group” value (human colon organoids; culture until day 5, FIG. 10) was “increased significantly”.

In the case of `Cc1c[nH]c(-c2cnc(NCCNc3ccc(C#N)cn3)nc2-c2ccc(Cl)cc2Cl)n1` [CHIR99021], the “protection of small intestinal organoids against 5-FU (live cells/dead cells double staining)” value ([3]; 5-FU 25 uM + CHIR99021 10 uM) is reported as “cannot protect small intestinal organoids”.

With `COc1cc([C@@H]2c3cc4c(cc3[C@@H](O[C@@H]3O[C@@H]5CO[C@@H](C)O[C@H]5[C@H](O)[C@H]3O)[C@H]3COC(=O)[C@H]23)OCO4)cc(OC)c1O` [Eto, etoposide, reference compound] the “biomass (bright field), Eto group compared with DMSO group” value ([4]; etoposide 50 uM alone, 8 hours of treatment, FIG. 6) was “significantly reduced”.

`O=C(NC1CC1)c1cc(-c2cccs2)on1` [ISX] was tested, and the “cell death caused by etoposide (Western blotting)” value [5] was “significantly reduce the cell death”, the “number of TUNEL signals in each crypt, ISX group vs cosolvent group” value (intestinal tract of mice; 3 hours, p<0.01, FIG. 12) was “significant difference” and the “TUNEL signal, orally administered ISX group vs cosolvent group” value (intestinal tract of mice; sacrificed 3 hours later, FIG. 11) was “significantly lower”. For the same compound, the “biomass (bright field), 5-FU+ISX group compared with the 5-FU group” value [2, 7] was “significantly increased”, the “number of living cells (Calcein-AM), 5-FU+ISX group vs 5-FU group” value [2, 7] was “significantly more” and the “number of surviving crypt structures in each organoid, 5-FU+ISX group vs 5-FU group” value ([2]; 5-FU 50 uM + ISX 25 uM, 8 hours, p<0.01, FIG. 3) was “significant difference”. The “cell death (cleaved caspase-3 signal) caused by etoposide” value [6] was “significantly reduce the cell death”, the “biomass (bright field), Eto+ISX group compared with the Eto group” value [4, 8] was “significantly increased” and the “number of living cells (Calcein-AM), Eto+ISX group vs Eto group” value [4, 8] was “significantly more”. For the same compound, the “number of surviving crypt structures in each organoid, Eto+ISX group vs Eto group” value ([4]; etoposide 50 uM + ISX 25 uM, 8 hours, p<0.01, FIG. 7) was “significant difference”.

`CC(=O)c1c(C)c2cnc(Nc3ccc(N4CCNCC4)cn3)nc2n(C2CCCC2)c1=O` [PD332991] was tested, and the “protection of small intestinal organoids against 5-FU (live cells/dead cells double staining)” value ([3]; 5-FU 25 uM + PD0332991 100 nM) was “cannot protect small intestinal organoids”.
